From ChEMBL document CHEMBL1201862, “PubChem BioAssay data set” (2004)
The source made the active and inactive calls.

Columns and labels:
Cytochrome P450 3A4 = Cytochrome P450 3A4 (Homo sapiens, UniProt P08684); conditions: Potency;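 note: confirmatory qHTS run detecting inhibitors and substrates of CYP3A4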
HT-1080 = assay: HT1080 cell viability loss – fluorescence readout (AID 620); type: functional, cell-based; conditions: Homo sapiens
[1] = biological target: Luciferin 4-monooxygenase (Photinus pyralis, UniProt P08659); assay: Counter Screen for Luciferase-based Assay Positives. [Related pubchem assays: 620, 618, 411 ]
Sequence of Luciferin 4-monooxygenase (P08659 whole entry): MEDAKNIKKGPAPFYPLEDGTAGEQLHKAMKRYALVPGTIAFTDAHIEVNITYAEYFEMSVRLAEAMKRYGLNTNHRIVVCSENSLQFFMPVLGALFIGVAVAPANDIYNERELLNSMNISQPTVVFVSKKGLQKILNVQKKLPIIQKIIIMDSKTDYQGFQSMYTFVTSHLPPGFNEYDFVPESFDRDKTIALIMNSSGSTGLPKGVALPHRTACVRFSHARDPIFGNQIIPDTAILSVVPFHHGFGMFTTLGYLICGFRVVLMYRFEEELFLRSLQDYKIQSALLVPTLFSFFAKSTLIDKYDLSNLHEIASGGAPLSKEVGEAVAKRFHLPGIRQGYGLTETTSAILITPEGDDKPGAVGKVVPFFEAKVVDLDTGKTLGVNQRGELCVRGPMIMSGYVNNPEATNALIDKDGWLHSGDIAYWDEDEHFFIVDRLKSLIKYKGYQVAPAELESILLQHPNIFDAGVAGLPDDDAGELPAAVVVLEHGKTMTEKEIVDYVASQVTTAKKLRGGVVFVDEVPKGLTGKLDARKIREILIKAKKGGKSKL

[2] = viability of uninfected HEp-2 cells – cell-based, HTS, cytotoxicity control for RSV inhibitor project, dose response (AID 2410); type: functional; conditions: human respiratory syncytial virus
[3] = HEK-293T cell viability reduction – luminescence, B-cell screen hits, cytotoxicity control for BCR NF-kB inhibitor project, dose response (AID 489021); type: functional, cell-based;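 note: HEK-293T cells carrying an NF-kB luciferase reporter; cells exposed to compound for about 14 hours before viability readout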
INS1 = assay: INS-1E survival protection against cytokine death – cell-based, luminescence, retest, dose response (AID 449756); type: functional; conditions: Rattus norvegicus;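 note: cell death triggered by IL-1 beta plus TNF-alpha plus IFN-gamma mixture; protective hits raise ATP signal compared with cytokine alone wells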
[4] = biological target: T1, Sphingosine 1-phosphate receptor 4 (Homo sapiens, UniProt O95977); assay: Fluorescence dose response cell-based high throughput screening assay for antagonists of the Sphingosine 1-Phosphate Receptor 4 (S1P4). [Related pubchem assays: 1524 (Confirmation in triplicates.), 1510 (Primary screen.)]; type: functional
T1 sequence (O95977 whole entry): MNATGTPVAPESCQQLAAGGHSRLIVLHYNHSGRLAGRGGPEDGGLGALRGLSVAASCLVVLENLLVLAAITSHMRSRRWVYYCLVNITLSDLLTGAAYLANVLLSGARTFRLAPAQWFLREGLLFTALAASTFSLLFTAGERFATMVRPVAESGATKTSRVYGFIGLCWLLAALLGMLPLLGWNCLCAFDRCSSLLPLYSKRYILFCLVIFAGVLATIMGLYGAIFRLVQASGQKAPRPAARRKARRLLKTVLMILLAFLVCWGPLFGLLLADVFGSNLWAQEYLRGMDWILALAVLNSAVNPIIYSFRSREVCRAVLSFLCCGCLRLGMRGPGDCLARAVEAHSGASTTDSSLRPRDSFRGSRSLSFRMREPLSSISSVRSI

[5] = luciferase reporter signal suppression in cells – H4 neuroglioma cells, luminescence, dose response (AID 1990); type: functional, cell-based
[6] = biological target: T2, Kappa-type opioid receptor (Homo sapiens, UniProt P41145); type: functional
T2 sequence (P41145 whole entry): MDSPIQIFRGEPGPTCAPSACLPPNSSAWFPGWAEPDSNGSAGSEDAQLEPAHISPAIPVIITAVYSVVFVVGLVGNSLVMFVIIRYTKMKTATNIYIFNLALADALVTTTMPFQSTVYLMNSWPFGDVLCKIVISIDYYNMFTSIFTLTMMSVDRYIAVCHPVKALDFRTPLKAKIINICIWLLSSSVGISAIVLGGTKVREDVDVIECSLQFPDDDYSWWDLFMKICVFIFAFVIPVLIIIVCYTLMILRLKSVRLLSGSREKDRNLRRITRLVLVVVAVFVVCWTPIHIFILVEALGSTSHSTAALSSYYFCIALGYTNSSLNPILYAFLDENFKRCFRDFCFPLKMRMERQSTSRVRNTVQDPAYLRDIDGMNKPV

[7] = alpha-synuclein stem-loop luciferase translation blockers – H4 neuroglioma cells, luminescence, confirmation (AID 1988); type: functional, cell-based
[8] = biological target: T2, Kappa-type opioid receptor; type: functional; remark: listed apart in the source
Melanocortin receptor 4 = Melanocortin receptor 4 (Homo sapiens, UniProt P32245); assay: inhibitors of MC4R cAMP signaling – cell-based, TR-FRET, biased antagonists, dose response (AID 602298); type: functional;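 note: antagonist potency against agonist-stimulated cAMP production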
Sequence of Melanocortin receptor 4 (P32245 whole entry): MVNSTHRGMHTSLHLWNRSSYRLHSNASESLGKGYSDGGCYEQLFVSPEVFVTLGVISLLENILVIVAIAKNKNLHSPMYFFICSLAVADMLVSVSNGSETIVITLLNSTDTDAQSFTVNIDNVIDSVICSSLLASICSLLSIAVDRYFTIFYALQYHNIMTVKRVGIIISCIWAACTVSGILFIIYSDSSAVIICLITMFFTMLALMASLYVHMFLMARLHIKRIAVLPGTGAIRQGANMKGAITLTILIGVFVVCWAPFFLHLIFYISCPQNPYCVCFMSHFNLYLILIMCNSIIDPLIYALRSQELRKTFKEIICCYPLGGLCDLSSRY

[9] = biological target: Sphingosine 1-phosphate receptor 1 (Homo sapiens, UniProt P21453); type: functional;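 note: Tango beta-arrestin reporter U2OS cells stimulated with S1P near its EC80; inhibitor potency meaning antagonism of receptor activation by the natural agonist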
Sequence of Sphingosine 1-phosphate receptor 1 (P21453 whole entry): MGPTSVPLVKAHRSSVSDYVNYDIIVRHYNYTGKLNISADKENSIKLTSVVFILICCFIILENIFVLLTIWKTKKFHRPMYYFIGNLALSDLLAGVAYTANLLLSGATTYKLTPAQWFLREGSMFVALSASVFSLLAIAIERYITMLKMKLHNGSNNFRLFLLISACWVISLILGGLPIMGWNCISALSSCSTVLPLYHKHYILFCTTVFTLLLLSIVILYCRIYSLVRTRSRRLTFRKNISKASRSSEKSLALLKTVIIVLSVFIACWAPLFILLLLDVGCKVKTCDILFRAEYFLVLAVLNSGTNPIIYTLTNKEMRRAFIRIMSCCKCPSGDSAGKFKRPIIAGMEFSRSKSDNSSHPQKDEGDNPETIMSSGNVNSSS

[10] = Luminescence Cell-Based Dose Response HTS to Identify Inhibitors of 5'UTR Stem-Loop Driven Prion Protein mRNA Translation in H4 Neuroglioblastoma Cells. [Related pubchem assays: 1827 (Project Summary), 1813 (Primary HTS)]; type: functional
Beta-galactosidase = Beta-galactosidase (Escherichia coli, UniProt Q8VNN2); type: functional
Sequence of Beta-galactosidase (Q8VNN2 whole entry): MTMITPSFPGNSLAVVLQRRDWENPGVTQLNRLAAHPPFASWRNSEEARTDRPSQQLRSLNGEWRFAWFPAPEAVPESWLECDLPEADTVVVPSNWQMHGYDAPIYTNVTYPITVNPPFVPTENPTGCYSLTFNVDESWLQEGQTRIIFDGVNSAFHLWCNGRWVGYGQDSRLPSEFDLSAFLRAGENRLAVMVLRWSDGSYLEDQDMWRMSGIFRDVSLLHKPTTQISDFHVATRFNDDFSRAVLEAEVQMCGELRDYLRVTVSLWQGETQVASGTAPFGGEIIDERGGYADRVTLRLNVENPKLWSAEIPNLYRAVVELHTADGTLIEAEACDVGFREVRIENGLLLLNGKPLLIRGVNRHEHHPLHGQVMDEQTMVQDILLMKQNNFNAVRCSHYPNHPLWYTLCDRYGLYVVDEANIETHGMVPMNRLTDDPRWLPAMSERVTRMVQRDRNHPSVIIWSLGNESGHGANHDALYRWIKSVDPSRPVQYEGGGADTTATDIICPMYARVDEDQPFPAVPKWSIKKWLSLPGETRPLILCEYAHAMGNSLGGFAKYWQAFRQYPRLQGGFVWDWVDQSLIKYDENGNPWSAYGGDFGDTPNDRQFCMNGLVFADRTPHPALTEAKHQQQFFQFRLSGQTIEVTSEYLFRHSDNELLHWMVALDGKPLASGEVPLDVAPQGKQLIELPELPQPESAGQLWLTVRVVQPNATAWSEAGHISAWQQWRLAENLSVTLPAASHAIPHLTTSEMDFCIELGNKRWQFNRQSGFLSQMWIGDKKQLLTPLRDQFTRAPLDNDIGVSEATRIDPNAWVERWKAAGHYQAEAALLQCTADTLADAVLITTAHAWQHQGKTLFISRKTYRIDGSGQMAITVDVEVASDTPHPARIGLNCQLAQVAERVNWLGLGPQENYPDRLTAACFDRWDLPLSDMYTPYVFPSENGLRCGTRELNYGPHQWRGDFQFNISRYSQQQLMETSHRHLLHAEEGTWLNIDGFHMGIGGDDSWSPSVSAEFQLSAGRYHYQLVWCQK

[11] = cAMP pathway inhibition in counterscreen cell line – TR-FRET cAMP detection, counter-screen for MC4R biased antagonist project, dose response (AID 602305); type: functional, cell-based;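 note: U2OS cells stimulated with forskolin near its EC80 as the cAMP inducer; potency is for inhibition of forskolin-stimulated cAMP signaling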
[12] = biological target: T3, Tyrosine-protein phosphatase non-receptor type 7 (Homo sapiens, UniProt P35236); assay: SAR analysis of chemical inhibitors of HePTP using a Fluorescent assay - Set 2. [Related pubchem assays (depositor defined):AID1059, AID1077, AID1661, AID2085, AID521]; type: functional
T3 sequence (P35236 whole entry): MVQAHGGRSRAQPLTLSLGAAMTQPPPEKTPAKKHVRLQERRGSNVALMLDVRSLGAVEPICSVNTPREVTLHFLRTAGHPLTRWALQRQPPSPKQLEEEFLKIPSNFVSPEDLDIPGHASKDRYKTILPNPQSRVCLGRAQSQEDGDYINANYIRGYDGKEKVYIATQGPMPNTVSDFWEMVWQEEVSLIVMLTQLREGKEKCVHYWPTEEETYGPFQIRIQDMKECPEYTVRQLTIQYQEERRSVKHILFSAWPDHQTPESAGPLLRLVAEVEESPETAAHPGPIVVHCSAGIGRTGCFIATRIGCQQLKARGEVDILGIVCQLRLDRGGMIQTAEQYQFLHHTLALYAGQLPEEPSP

[13] = biological target: Dual specificity protein phosphatase 3 (Homo sapiens, UniProt P51452); assay: SAR VHR1 Fluorescent Assay for In Vitro dose response studies Set 2. [Related pubchem assays (depositor defined):AID1654, AID1661, AID1878]; type: functional
Sequence of Dual specificity protein phosphatase 3 (P51452 whole entry): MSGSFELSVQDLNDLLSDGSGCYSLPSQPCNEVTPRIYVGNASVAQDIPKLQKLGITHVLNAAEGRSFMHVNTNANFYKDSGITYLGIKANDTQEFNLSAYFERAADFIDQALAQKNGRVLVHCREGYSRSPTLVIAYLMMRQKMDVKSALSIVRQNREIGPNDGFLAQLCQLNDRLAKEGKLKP

Streptococcus = assay: Luminescence Microorganism-Based Dose Response Follow up to Identify Compounds Cytotoxic to Streptococcus. [Related pubchem assays: 1677 (Project Summary), 1915, 1914, 1902 (Retest at Dose), 1900 (Counter Screen), 1662 (Primary HTS)]; type: functional, organism-based

Sequence of Cytochrome P450 3A4 (P08684 whole entry): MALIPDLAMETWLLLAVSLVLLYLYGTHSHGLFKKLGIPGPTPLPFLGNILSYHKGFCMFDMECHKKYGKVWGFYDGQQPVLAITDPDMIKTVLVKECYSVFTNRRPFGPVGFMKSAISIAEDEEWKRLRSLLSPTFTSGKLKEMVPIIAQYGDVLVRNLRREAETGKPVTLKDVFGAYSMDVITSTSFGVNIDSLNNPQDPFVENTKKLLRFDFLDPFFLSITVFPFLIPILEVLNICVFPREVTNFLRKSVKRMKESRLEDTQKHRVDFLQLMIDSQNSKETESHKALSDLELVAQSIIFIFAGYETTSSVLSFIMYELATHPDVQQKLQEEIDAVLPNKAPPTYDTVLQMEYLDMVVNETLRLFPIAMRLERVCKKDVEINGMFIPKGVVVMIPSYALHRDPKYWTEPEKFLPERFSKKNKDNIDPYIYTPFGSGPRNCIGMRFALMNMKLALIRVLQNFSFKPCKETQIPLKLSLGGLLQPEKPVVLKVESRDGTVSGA

In the case of `CCOC(=O)CC(SP(=O)(OC)OC)C(=O)OCC` (stereo not drawn), the AC50 (Cytochrome P450 3A4) is reported as 25.1 µM (inconclusive).

For `CC(=O)Nc1ccc(OC(=O)N2CCCCC2)cc1`, the EC50 (HT-1080) was > 50 µM (not active) and the EC50 [1] was 3.67 µM (active).

For `Cn1cnnc1Sc1cc(N2CCN(S(=O)(=O)c3ccc(Cl)c(Cl)c3)CC2)ccc1[N+](=O)[O-]`, the CC50 [2] was > 50 µM (active) and the IC50 (cells) was 10.7 µM (active).

In the case of `CCC(=O)N1c2ccccc2[C@@H](N(C(C)=O)c2ccccc2)C[C@H]1C`, the IC50 [3] is reported as > 80 µM (inactive).

With `COc1ccc(C(=O)/C(=C\c2ccco2)N2C=CC=CC2=C(C#N)C#N)cc1` the AC50 (INS1) was 5.51 µM (active), the IC50 [4] was 2.01 µM (active) and the EC50 [5] was 7.21 µM (inconclusive). For the same compound, the IC50 [6] was 18 µM, the EC50 [7] was 0.141 µM (active) and the IC50 [8] was 5.93 µM (active). The IC50 (Melanocortin receptor 4) was > 64.6 µM (inactive), the IC50 [9] was 9.37 µM (active) and the EC50 [10] was 12.3 µM (active). The EC50 (Beta-galactosidase) was > 31.5 µM (inactive) and the IC50 [11] was > 64.6 µM (inactive).

With `NS(=O)(=O)c1ccc(NC(=S)N2CCN(Cc3ccc(Cl)c(Cl)c3)CC2)cc1` the EC50 [5] was 34.5 µM (active), the IC50 [12] was 48.4 µM (active) and the EC50 [7] was > 120 µM (not active). The IC50 [13] was > 100 µM (inactive) and the EC50 [10] was > 120 µM (not active).

For `Cc1ccc(C(=O)C(c2ccccc2)N2Cc3ccccc3C2=N)cc1` (stereo not drawn), the EC50 (Streptococcus) was 33.5 µM (active).
